One data set concerns the target T1, IL-23R (Homo sapiens, UniProt Q5VWK5).
T1 construct: host or cells: HEK293
T1 sequence (Q5VWK5 24-629): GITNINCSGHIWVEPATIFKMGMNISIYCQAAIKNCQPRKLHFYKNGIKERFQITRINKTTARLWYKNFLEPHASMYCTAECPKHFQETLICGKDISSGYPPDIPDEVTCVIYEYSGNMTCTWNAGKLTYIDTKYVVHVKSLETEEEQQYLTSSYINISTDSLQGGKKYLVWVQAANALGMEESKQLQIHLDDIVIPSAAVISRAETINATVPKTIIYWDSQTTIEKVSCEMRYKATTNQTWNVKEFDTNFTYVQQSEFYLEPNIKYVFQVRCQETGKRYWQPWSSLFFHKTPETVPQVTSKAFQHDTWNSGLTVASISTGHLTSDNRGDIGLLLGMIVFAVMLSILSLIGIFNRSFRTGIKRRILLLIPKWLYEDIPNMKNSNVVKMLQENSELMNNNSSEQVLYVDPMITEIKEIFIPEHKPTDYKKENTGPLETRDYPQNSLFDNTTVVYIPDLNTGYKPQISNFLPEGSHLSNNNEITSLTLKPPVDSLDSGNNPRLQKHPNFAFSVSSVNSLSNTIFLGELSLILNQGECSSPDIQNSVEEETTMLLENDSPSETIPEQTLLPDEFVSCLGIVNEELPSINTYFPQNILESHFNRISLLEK
Description: IL23R Reporter Assay. In kind it is cell-based. Conditions: HEK293 cells containing IL-23R, IL-12RP1 and STAT-inducible firefly luciferase reporter; 10 ng/mL IL-23 (EC90); 5 h at 37° C.; read-out: IL23R Reporter Assay. (Reporter assays use an easily measured gene product as a stand-in for the process of interest.)

Data set [1] in a line: Exposed Polar Surface Area (EPSA). In kind it is physicochemical. Conditions: SFC on Chirex 3014 column; sample 1 mM DMSO stock; read-out: EPSA. The gist of the method: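 Polarity descriptor in Å² derived from retention time using 8 calibration standards re-run every 20 compounds. Duplicate injections of 1 mM DMSO stock; linear 5–60% modifier gradient (20 mM ammonium formate in MeOH) with CO2 at 4 mL/min, 35 °C, on a Chirex 3014 column.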

Starred links: 1 amine or outer side, 2 acyl side, 3 side chain; linkers in the order of their positions; H or OH if unused. Positions of bridges follow the written chain, without caps; N, C: chain ends. Non-standard residues stand in square brackets, D forms with d. Residues, ends and D or L forms follow the SMILES beside them. *: point of attachment. Me3N+CH2CH2(OCH2CH2)4CO = C[N+](C)(C)CCOCCOCCOCCOCCC(=O)*; Me3N+(CH2)2O(CH2)2O(CH2)2CO = C[N+](C)(C)CCOCCOCCC(=O)*; X35 = Cc1cccc2c(C[C@H](N[*:1])C(=O)[*:2])cn(C)c12; Trp(7-Me) = Cc1cccc2c(C[C@H](N)C(=O)O)c[nH]c12; d(hLys(Me3)) = C[N+](C)(C)CCCCC[C@@H](N)C(=O)O; Decanoyl(3,6,9-trioxa) = COCCOCCOCC(=O)*; Dab(NMeAc) = CC(=O)N(C)CC[C@H](N)C(=O)O; X1 = CN(CC[C@H](N[*:1])C(=O)[*:2])[*:3]; 2Nal = N[C@@H](Cc1ccc2ccccc2c1)C(=O)O; AEF = NCCOc1ccc(C[C@H](N)C(=O)O)cc1; X24 = C[N+](C)(CCN[*:1])CC(=O)[*:2]; 3Pal = N[C@@H](Cc1cccnc1)C(=O)O; Lys(Me) = CNCCCC[C@H](N)C(=O)O; X5 = C[N+](C)(C)CCOCCOCC(=O)*; Pen = CC(C)(S)[C@H](N)C(=O)O; Thp = NC1(C(=O)O)CCOCC1; X3 = C[N+](C)(C)CCCCC*; Sar = CNCC(=O)O

For `COCCOCCOCC(=O)NCC[N+](C)(C)CC(=O)N[C@@H]1C(=O)N[C@@H](CC(=O)N(C)C)C(=O)N[C@@H]([C@@H](C)O)C(=O)N[C@@H](Cc2c[nH]c3c(C)cccc23)C(=O)N[C@@H](CCCCN(C)C(C)=O)C(=O)N[C@H](C(=O)N[C@@H](Cc2ccc(OCCN)cc2)C(=O)N[C@@H](Cc2ccc3ccccc3c2)C(=O)NC2(C(=O)N[C@@H](CCC(=O)N(C)C)C(=O)N[C@@H](CC(N)=O)C(=O)N[C@@H](Cc3cccnc3)C(=O)N(C)CC(N)=O)CCOCC2)C(C)(C)SSC1(C)C` [compound 152, mPEG3CO-SP6-Pen(3)-N(N(Me)2)-T-7MeW-K(NMeAc)-Pen(3)-AEF-2Nal-THP-QNMe2-N-3Pya-Sar-CONH2] ({Decanoyl(3,6,9-trioxa)}-[X24][Pen]D(NMe2)T[Trp(7-Me)][Lys(Me)](Ac)[Pen][AEF][2Nal][Thp]E(NMe2)N[3Pal][Sar]-NH2; disulfide 2-7), at IL-23R, the IC50 turned out to be 1.6 nM. Also, the EPSA in data set [1] is 155 A^2.

For `CC(=O)NCCCC[C@@H]1NC(=O)[C@H](Cc2c[nH]c3c(C)cccc23)NC(=O)[C@H]([C@@H](C)O)NC(=O)[C@H](CC(N)=O)NC(=O)[C@@H](NC(C)=O)C(C)(C)SSC(C)(C)[C@@H](C(=O)N[C@@H](Cc2ccc(OCCN)cc2)C(=O)N[C@@H](Cc2ccc3ccccc3c2)C(=O)NC2(C(=O)N[C@@H](CCCCNC(C)=O)C(=O)N[C@@H](CC(N)=O)C(=O)N(C)C)CCOCC2)NC1=O` [compound 153] (Ac-[Pen]NT[Trp(7-Me)]K(Ac)[Pen][AEF][2Nal][Thp]K(Ac)N-NMe2; disulfide 1-6 (inferred)), the IC50 on IL-23R turned out to be 270 nM. For the same molecule, in data set [1], the EPSA is 171 A^2.

For the molecule `Cc1cccc2c(C[C@@H]3NC(=O)[C@H]([C@@H](C)O)NC(=O)[C@H](CC(N)=O)NC(=O)[C@@H](NC(=O)CCOCCOCC[N+](C)(C)C)C(C)(C)SSC(C)(C)[C@@H](C(=O)N[C@@H](Cc4ccc(OCCN)cc4)C(=O)N[C@@H](Cc4ccc5ccccc5c4)C(=O)NC4(C(=O)N[C@@H](CCC(=O)N(C)C)C(=O)N[C@@H](CC(N)=O)C(=O)N[C@@H](Cc5cccnc5)C(=O)N(C)CC(=O)N(C)C)CCOCC4)NC(=O)[C@H](CCC(=O)N(C)C)NC3=O)c[nH]c12` [compound 156, cPEG3aCO-Pen(3)-N-T-7MeW-Q(N(Me)2)-Pen(3)-AEF-2Nal-THP-Q(N(Me)2)-N-3Pya-Sar-CON(Me)2] ({Me3N+(CH2)2O(CH2)2O(CH2)2CO}-[Pen]NT[Trp(7-Me)]E(NMe2)[Pen][AEF][2Nal][Thp]E(NMe2)N[3Pal][Sar]-NMe2; disulfide 1-6), at IL-23R, the IC50 is 2 nM. Besides, the EPSA in data set [1] stood at 155 A^2.

`CC(=O)N(C)CC[C@H](NC(=O)C1(NC(=O)[C@H](Cc2ccc3ccccc3c2)NC(=O)[C@H](Cc2ccc(OCCN)cc2)NC(=O)[C@H]2NC(=O)[C@H](CCC(=O)N(C)C)NC(=O)[C@H](Cc3c[nH]c4c(C)cccc34)NC(=O)[C@H]([C@@H](C)O)NC(=O)[C@H](CC(=O)N(C)C)NC(=O)[C@@H](NC(=O)CCOCCOCC[N+](C)(C)C)C(C)(C)SSC2(C)C)CCOCC1)C(=O)N[C@@H](CC(N)=O)C(=O)N[C@@H](Cc1cccnc1)C(=O)N(C)CC(=O)N(C)C` [compound 159, cPEG3aCO-Pen(3)-N(N(Me)2)-T-7MeW-Q(N(Me)2)-Pen(3)-AEF-2Nal-THP-Dab(NMeAc)-N-3Pya-Sar-CON(Me)2] ({Me3N+(CH2)2O(CH2)2O(CH2)2CO}-[Pen]D(NMe2)T[Trp(7-Me)]E(NMe2)[Pen][AEF][2Nal][Thp][Dab(NMeAc)]N[3Pal][Sar]-NMe2; disulfide 1-6): the IC50 at IL-23R came out at 1.8 nM. Moreover, the EPSA in data set [1] turned out to be 149 A^2.

Consider `CC(=O)N[C@H](CCCCC[N+](C)(C)C)C(=O)N[C@@H]1C(=O)N[C@@H](CC(=O)N(C)C)C(=O)N[C@@H]([C@@H](C)O)C(=O)N[C@@H](Cc2c[nH]c3c(C)cccc23)C(=O)N[C@@H](CCCCN(C)C(C)=O)C(=O)N[C@H](C(=O)N[C@@H](Cc2ccc(OCCN)cc2)C(=O)N[C@@H](Cc2ccc3ccccc3c2)C(=O)NC2(C(=O)N[C@@H](CCC(=O)O)C(=O)N[C@@H](CC(N)=O)C(=O)N[C@@H](Cc3cccnc3)C(=O)N(C)CC(=O)N(C)C)CCOCC2)C(C)(C)SSC1(C)C` [compound 163, MeCO-hk(Me)3-Pen(3)-N(N(Me)2)-T-7MeW-K(NMeAc)-Pen(3)-AEF-2Nal-THP-E-N-3Pya-Sar-CON(Me)2] (Ac-[d(hLys(Me3))][Pen]D(NMe2)T[Trp(7-Me)][Lys(Me)](Ac)[Pen][AEF][2Nal][Thp]EN[3Pal][Sar]-NMe2; disulfide 2-7 (inferred)), for which, on IL-23R, the IC50 is 3.2 nM. Further, the EPSA in data set [1] is 168 A^2.

As for `CC(=O)N(C)CCCC[C@@H]1NC(=O)[C@H](Cc2c[nH]c3c(C)cccc23)NC(=O)[C@H]([C@@H](C)O)NC(=O)[C@H](CC(=O)N(C)C)NC(=O)[C@@H](NC(=O)CCOCCOCC[N+](C)(C)C)C(C)(C)SSC(C)(C)[C@@H](C(=O)N[C@@H](Cc2ccc(OCCCCC[N+](C)(C)C)cc2)C(=O)N[C@@H](Cc2ccc3ccccc3c2)C(=O)NC2(C(=O)N[C@@H](CCC(=O)O)C(=O)N[C@@H](CC(N)=O)C(=O)N[C@@H](Cc3cccnc3)C(=O)N(C)CC(=O)N(C)C)CCOCC2)NC1=O` [compound 165, cPEG3aCO-Pen(3)-N(N(Me)2)-T-7MeW-K(NMeAc)-Pen(3)-TMAPF-2Nal-THP-E-N-3Pya-Sar-CON(Me)2] ({Me3N+(CH2)2O(CH2)2O(CH2)2CO}-[Pen]D(NMe2)T[Trp(7-Me)][Lys(Me)](Ac)[Pen]Y(X3)[2Nal][Thp]EN[3Pal][Sar]-NMe2; disulfide 1-6), the IC50 on IL-23R is 4.3 nM. Further, in data set [1], the EPSA turned out to be 151 A^2.

For `CC(=O)NCCCC[C@@H]1NC(=O)[C@H](Cc2cn(C)c3c(C)cccc23)NC(=O)[C@H]([C@@H](C)O)NC(=O)[C@H](CC(N)=O)NC(=O)[C@@H](NC(C)=O)C(C)(C)SSC(C)(C)[C@@H](C(=O)N[C@@H](Cc2ccc(OCCN)cc2)C(=O)N[C@@H](Cc2ccc3ccccc3c2)C(=O)NC2(C(=O)N[C@@H](CCC(=O)O)C(=O)N[C@@H](CC(N)=O)C(=O)N[C@@H](Cc3cccnc3)C(=O)N(C)CC(N)=O)CCOCC2)NC1=O` [compound 166] (Ac-[Pen]NT[X35]K(Ac)[Pen][AEF][2Nal][Thp]EN[3Pal][Sar]-NH2; disulfide 1-6 (inferred)), the IC50 on IL-23R worked out at 3 nM. Further, in data set [1], the EPSA was determined as 179 A^2.

Consider `Cc1cccc2c(C[C@@H]3NC(=O)[C@H]([C@@H](C)O)NC(=O)[C@H](CC(=O)N(C)C)NC(=O)[C@@H](NC(=O)CCOCCOCCOCCOCC[N+](C)(C)C)C(C)(C)SSC(C)(C)[C@@H](C(=O)N[C@@H](Cc4ccc(OCCN)cc4)C(=O)N[C@@H](Cc4ccc5ccccc5c4)C(=O)NC4(C(=O)N[C@@H](CCN(C)C(=O)COCCOCC[N+](C)(C)C)C(=O)N[C@@H](CC(N)=O)C(=O)N[C@@H](Cc5cccnc5)C(=O)N(C)CC(=O)N(C)C)CCOCC4)NC(=O)[C@H](CCN(C)C(=O)COCCOCC[N+](C)(C)C)NC3=O)c[nH]c12` [compound 172, cPEG5aCO-Pen(3)-N(N(Me)2)-T-7MeW-Dab(NMecPEG2a)-Pen(3)-AEF-2Nal-THP-Dab(NMecPEG2a)-N-3Pya-Sar-CON(Me)2] ({Me3N+CH2CH2(OCH2CH2)4CO}-[Pen]D(NMe2)T[Trp(7-Me)][X1](X5)[Pen][AEF][2Nal][Thp][X1](X5)N[3Pal][Sar]-NMe2; disulfide 1-6), for which the IC50 at IL-23R is 6.5 nM. For the same molecule, in data set [1], the EPSA is 145 A^2.

In the case of `CC(=O)N(C)CC[C@H](NC(=O)C1(NC(=O)[C@H](Cc2ccc3ccccc3c2)NC(=O)[C@H](Cc2ccc(OCCN)cc2)NC(=O)[C@H]2NC(=O)[C@H](CCC(=O)N(C)C)NC(=O)[C@H](Cc3c[nH]c4c(C)cccc34)NC(=O)[C@H]([C@@H](C)O)NC(=O)[C@H](CC(=O)N(C)C)NC(=O)[C@@H](NC(=O)CCOCCOCCOCCOCC[N+](C)(C)C)C(C)(C)SSC2(C)C)CCOCC1)C(=O)N[C@@H](CC(N)=O)C(=O)N[C@@H](Cc1cccnc1)C(=O)N(C)CC(=O)N(C)C` [compound 173, cPEG5aCO-Pen(3)-N(N(Me)2)-T-7MeW-Q(N(Me)2)-Pen(3)-AEF-2Nal-THP-Dab(NMeAc)-N-3Pya-Sar-CON(Me)2] ({Me3N+CH2CH2(OCH2CH2)4CO}-[Pen]D(NMe2)T[Trp(7-Me)]E(NMe2)[Pen][AEF][2Nal][Thp][Dab(NMeAc)]N[3Pal][Sar]-NMe2; disulfide 1-6 (inferred)), on IL-23R, the IC50 was 3.1 nM. In addition, the EPSA in data set [1] worked out at 144 A^2.

The values are drawn from patent US20260022143A1, “Cyclic Peptide Inhibitors of IL-23” (JANSSEN PHARMACEUTICA NV, priority 2022, published 2026).
